Measured values from patent US5614508A, “Amino acid derivatives of substituted quinoxaline 2,3-dione derivatives as glutamate receptor antagonists” (Warner-Lambert Company, priority 1995, dated 1997).
pIC50: −log10 of the molar value.

How the values were obtained:
[1] = biological target: kainate site (non-NMDA receptor); test: binding affinity for the kainate site (non-NMDA receptor) (London and Coyle); details: Table 1, KA
AMPA receptors = test: binding affinity for the AMPA receptors (Honore et al.); details: Table 1, AMPA

Row | IC50 KA [1] [µM] | pIC50 (AMPA receptors) | Compound
1 | 4.68 | 5.75 | C=Cc1c(Br)cc2[nH]c(=O)c(=O)[nH]c2c1CN(C)CC(=O)O [Compound 1, [(7-Bromo-2,3-dioxo-6-vinyl-1,2,3,4-tetrahydro-quinoxalin-5-ylmethyl)-methyl-amino]-acetic acid]
2 | 6.72 | 5.63 | CCc1c(Br)cc2[nH]c(=O)c(=O)[nH]c2c1CN(C)CC(=O)O [Compound 2, [(7-Bromo-6-ethyl-2,3-dioxo-1,2,3,4-tetrahydro-quinoxalin-5-ylmethyl)-methyl-amino]-acetic acid]
3 | 3.48 | 6.89 | CCOC(=O)CN(C)Cc1c(CC)c([N+](=O)[O-])cc2[nH]c(=O)c(=O)[nH]c12 [Compound 3, [(6-Ethyl-7-nitro-2,3-dioxo-1,2,3,4-tetrahydro-quinoxalin-5-ylmethyl)-methyl-amino]-acetic acid ethyl ester]
4 | 17.05 | 5.41 | CCc1ccc2[nH]c(=O)c(=O)[nH]c2c1CN(C)CC(=O)O [Compound 4, [(6-Ethyl-2,3-dioxo-1,2,3,4-tetrahydro-quinoxalin-5ylmethyl)-methyl-amino]-acetic acid]
